Laboratory results as given in patent publication US20250230193A1, “CYCLIC COMPOUND HAVING SELECTIVE KRAS INHIBITORY EFFECT ON HRAS AND NRAS” (CHUGAI SEIYAKU KABUSHIKI KAISHA, priority 2022, published 2025).
*1 amine or outer side, *2 acyl side, *3 side chain or, on linkers, in order; H or OH if unused. Where a SMILES comes first, the peptide text is derived from it. Bridges are numbered along the chain shown (N, C = ends). [ ]: non-standard residue; d: D form. The star is where a group is joined. hPhe(3,5-F2-4-CF3) = N[C@@H](CCc1cc(F)c(C(F)(F)F)c(F)c1)C(=O)O; hPhe(3-Cl-4-CF3) = N[C@@H](CCc1ccc(C(F)(F)F)c(Cl)c1)C(=O)O; NPrPhe(4-CF3) = CCCN[C@@H](Cc1ccc(C(F)(F)F)cc1)C(=O)O; NMeAbu(4,4,4-F3) = CN[C@@H](CC(F)(F)F)C(=O)O; X16 = O=C([C@@H](N[*:1])C1CC(F)(F)C1)[*:2]; NMeGly(cPent) = CN[C@H](C(=O)O)C1CCCC1; Nva(3-Et) = CCC(CC)[C@H](N)C(=O)O; Gly(N-propargyl) = C#CCNCC(=O)O; NMeD = CN[C@@H](CC(=O)O)C(=O)O; NMeL = CN[C@@H](CC(C)C)C(=O)O; Morpholide = C1CN(*)CCO1; NAllylGly = C=CCNCC(=O)O; Ac5c = NC1(C(=O)O)CCCC1; Sar = CNCC(=O)O

Tests used:
[1] = molecular target: GDP-bound NRAS wild-type protein (Homo sapiens, UniProt P01111); assay: Binding to NRAS by surface plasmon resonance (SPR), Single Cycle Kinetics; conditions: KD ratio NRAS/KRAS, SPR
GDP-bound NRAS wild-type protein, sequence (P01111 whole entry): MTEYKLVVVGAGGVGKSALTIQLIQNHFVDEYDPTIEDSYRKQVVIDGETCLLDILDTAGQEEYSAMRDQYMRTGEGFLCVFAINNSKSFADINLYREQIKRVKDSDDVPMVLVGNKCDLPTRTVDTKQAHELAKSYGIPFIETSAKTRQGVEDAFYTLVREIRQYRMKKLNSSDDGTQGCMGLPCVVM

[2] = molecular target: GDP-bound HRAS wild-type protein (Homo sapiens, UniProt P01112); assay: Binding to HRAS by surface plasmon resonance (SPR), Single Cycle Kinetics; conditions: KD ratio HRAS/KRAS, SPR
GDP-bound HRAS wild-type protein, sequence (P01112 whole entry): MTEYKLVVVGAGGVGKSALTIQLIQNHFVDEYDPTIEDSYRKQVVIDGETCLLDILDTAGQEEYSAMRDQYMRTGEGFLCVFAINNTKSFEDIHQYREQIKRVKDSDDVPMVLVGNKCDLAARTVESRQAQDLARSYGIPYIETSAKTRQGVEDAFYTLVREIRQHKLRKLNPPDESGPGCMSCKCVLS

Structure (SMILES) | NRAS/KRAS (ratio of KD value with respect to GDP-bound NRAS wild-type protein to KD value with respect to KRAS) [1] | HRAS/KRAS (ratio of KD value with respect to GDP-bound HRAS wild-type protein to KD value with respect to KRAS) [2]
CCCN1C(=O)CN(C)C(=O)CN(C)C(=O)[C@H]([C@@H](C)CC)NC(=O)[C@H](CC(C)C)N(C)C(=O)C[C@@H](C(=O)N(C)C)N(C)C(=O)[C@H](CC(F)(F)F)N(C)C(=O)C2(CCCC2)NC(=O)[C@@H]2CCCN2C(=O)[C@H](CCc2cc(F)c(C(F)(F)F)c(F)c2)NC(=O)CN(C)C(=O)[C@@H]1Cc1ccc(C(F)(F)F)cc1 [PP0746] ([NMeL]I[Sar][Sar][NPrPhe(4-CF3)][Sar][hPhe(3,5-F2-4-CF3)]P[Ac5c][NMeAbu(4,4,4-F3)][NMeD]-NMe2; lactam N-11) | B (a compound having 3 or more and less than 10 is denoted as B) | C (A compound having a KD ratio of 0.1 or more and less than 3 is denoted as C)
CCCN1C(=O)CN(C)C(=O)CN(C)C(=O)[C@H](C(CC)CC)NC(=O)[C@H](CC(C)C)N(C)C(=O)C[C@@H](C(=O)N(C)C)N(C)C(=O)[C@H](C2CCCC2)N(C)C(=O)C2(CCCC2)NC(=O)[C@@H]2CCCN2C(=O)[C@H](CCc2cc(F)c(C(F)(F)F)c(F)c2)NC(=O)CN(C)C(=O)[C@@H]1Cc1ccc(C(F)(F)F)cc1 [PP0747] ([NMeL][Nva(3-Et)][Sar][Sar][NPrPhe(4-CF3)][Sar][hPhe(3,5-F2-4-CF3)]P[Ac5c][NMeGly(cPent)][NMeD]-NMe2; lactam N-11) | B (a compound having 3 or more and less than 10 is denoted as B) | C (A compound having a KD ratio of 0.1 or more and less than 3 is denoted as C)
CCCN1C(=O)CN(C)C(=O)CN(C)C(=O)[C@H](C2CC(F)(F)C2)NC(=O)[C@H](CC(C)C)N(C)C(=O)C[C@@H](C(=O)N(C)C)N(C)C(=O)[C@H](C2CCCC2)N(C)C(=O)C2(CCCC2)NC(=O)[C@@H]2CCCN2C(=O)[C@H](CCc2cc(F)c(C(F)(F)F)c(F)c2)NC(=O)CN(C)C(=O)[C@@H]1Cc1ccc(C(F)(F)F)cc1 [PP0748] ([NMeL][X16][Sar][Sar][NPrPhe(4-CF3)][Sar][hPhe(3,5-F2-4-CF3)]P[Ac5c][NMeGly(cPent)][NMeD]-NMe2; lactam N-11) | B (a compound having 3 or more and less than 10 is denoted as B) | B (a compound having 3 or more and less than 10 is denoted as B)
C=CCN1CC(=O)N(C)CC(=O)N(CCC)[C@@H](Cc2ccc(C(F)(F)F)cc2)C(=O)N(C)CC(=O)N[C@@H](CCc2ccc(C(F)(F)F)c(Cl)c2)C(=O)N2CCC[C@H]2C(=O)NC2(CCCC2)C(=O)N(C)[C@@H](C2CCCC2)C(=O)N(C)[C@H](C(=O)N2CCOCC2)CC(=O)N(C)[C@@H](CC(C)C)C(=O)N[C@@H]([C@@H](C)CC)C1=O [PP0749] ([NMeL]I[NAllylGly][Sar][NPrPhe(4-CF3)][Sar][hPhe(3-Cl-4-CF3)]P[Ac5c][NMeGly(cPent)][NMeD]-Morpholide; lactam N-11) | B (a compound having 3 or more and less than 10 is denoted as B) | C (A compound having a KD ratio of 0.1 or more and less than 3 is denoted as C)
C#CCN1CC(=O)N(C)CC(=O)N(CCC)[C@@H](Cc2ccc(C(F)(F)F)cc2)C(=O)N(C)CC(=O)N[C@@H](CCc2ccc(C(F)(F)F)c(Cl)c2)C(=O)N2CCC[C@H]2C(=O)NC2(CCCC2)C(=O)N(C)[C@@H](C2CCCC2)C(=O)N(C)[C@H](C(=O)N2CCOCC2)CC(=O)N(C)[C@@H](CC(C)C)C(=O)N[C@@H]([C@@H](C)CC)C1=O [PP0750] ([NMeL]I[Gly(N-propargyl)][Sar][NPrPhe(4-CF3)][Sar][hPhe(3-Cl-4-CF3)]P[Ac5c][NMeGly(cPent)][NMeD]-Morpholide; lactam N-11) | B (a compound having 3 or more and less than 10 is denoted as B) | C (A compound having a KD ratio of 0.1 or more and less than 3 is denoted as C)
